How the values were obtained:
Toll-like receptor 7 = target: T1, Toll-like receptor 7 (Homo sapiens, UniProt Q9NYK1); test: Toll-like receptor 7 in vitro receptor binding activity screen (HEK-blue hTLR7 cell, Quanti-Blue alkaline phosphatase readout); type: cell-based; details: versus GS-9620
T1 construct: host or cells: HEK-blue hTLR7 cell (HEK293-derived reporter line)
T1 sequence (Q9NYK1 27-1049): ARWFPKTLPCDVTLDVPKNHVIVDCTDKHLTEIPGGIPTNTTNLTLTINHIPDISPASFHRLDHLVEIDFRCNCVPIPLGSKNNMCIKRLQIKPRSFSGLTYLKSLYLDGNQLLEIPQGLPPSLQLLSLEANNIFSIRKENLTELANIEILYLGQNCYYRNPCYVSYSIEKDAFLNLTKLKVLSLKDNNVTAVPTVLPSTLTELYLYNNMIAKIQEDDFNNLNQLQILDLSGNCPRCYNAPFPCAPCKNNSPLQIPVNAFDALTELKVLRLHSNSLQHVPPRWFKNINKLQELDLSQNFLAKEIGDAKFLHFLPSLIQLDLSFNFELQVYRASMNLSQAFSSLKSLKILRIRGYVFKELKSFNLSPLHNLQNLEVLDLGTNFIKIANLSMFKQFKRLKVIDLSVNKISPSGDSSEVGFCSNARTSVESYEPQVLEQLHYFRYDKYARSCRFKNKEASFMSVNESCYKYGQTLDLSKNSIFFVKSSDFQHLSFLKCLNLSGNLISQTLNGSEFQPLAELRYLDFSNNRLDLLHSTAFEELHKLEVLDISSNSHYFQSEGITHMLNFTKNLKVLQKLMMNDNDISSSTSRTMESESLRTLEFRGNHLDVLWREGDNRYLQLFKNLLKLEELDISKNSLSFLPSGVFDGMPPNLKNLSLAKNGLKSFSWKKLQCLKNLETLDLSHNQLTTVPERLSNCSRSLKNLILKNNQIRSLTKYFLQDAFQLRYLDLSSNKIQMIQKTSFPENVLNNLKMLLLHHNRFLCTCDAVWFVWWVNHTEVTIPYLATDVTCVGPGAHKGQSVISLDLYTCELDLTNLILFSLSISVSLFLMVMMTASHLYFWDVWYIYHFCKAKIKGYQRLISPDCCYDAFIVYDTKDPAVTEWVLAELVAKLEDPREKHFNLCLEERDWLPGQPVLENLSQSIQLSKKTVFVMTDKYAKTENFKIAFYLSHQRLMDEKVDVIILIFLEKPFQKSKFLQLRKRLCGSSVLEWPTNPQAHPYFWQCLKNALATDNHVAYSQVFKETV
Method: (§1) Efficacy example 1: Toll-like receptor 7 and Toll-like receptor 8 in vitro receptor binding activity screen
(§2) HEK-blue hTLR7 cell and HEK-blue hTLR8 cell (available from InvivoGen)
(§3) The compounds were gradient diluted with DMSO in 3-fold using liquid work station POD starting at a concentration of 10 mmol/L and 10 points were diluted (2nd column to 11th column, and each point was duplicated). At 12th column, 1 μL of 5 mg/mL positive compound R848 was added as positive control; and at 1st column, 1 μL of DMSO was added as negative control. Each well contained 1 μL of DMSO.
(§4) 2. The cells in culture flask were collected and the cell density was diluted to 250,000 cells/mL.
(§5) 3. 200 μL (50,000 cells/well) of cell suspension was added into prepared compound plate and the final concentration of DMSO in each well was 0.5%.
(§6) 4. The culture plates containing cells and the compounds were incubated in CO2 incubator for 24 h at 37° C., 5% CO2.
(§7) 5. After 24 h incubation, 20 μL of supernatant was removed from each well to a 96-well transparent assay plate. To each well of the assay plate was added 180 μL of Quanti-Blue reagent and the plate was incubated in an incubator at 37° C., 5% CO2 for 1 h.
(§8) 6. After 1 h, the content of alkaline phosphatase in 20 μL of supernatant was determined using Microplate Reader OD650.
(§9) 7. EC50 of each compound was obtained with Prism software.

Toll-like receptor 8 = target: T2, Toll-like receptor 8 (Homo sapiens, UniProt Q9NR97); test: Toll-like receptor 8 in vitro receptor binding activity screen (HEK-blue hTLR8 cell, Quanti-Blue alkaline phosphatase readout); type: cell-based; details: versus GS-9620
T2 construct: host or cells: HEK-blue hTLR8 cell (HEK293-derived reporter line)
T2 sequence (Q9NR97 27-1041): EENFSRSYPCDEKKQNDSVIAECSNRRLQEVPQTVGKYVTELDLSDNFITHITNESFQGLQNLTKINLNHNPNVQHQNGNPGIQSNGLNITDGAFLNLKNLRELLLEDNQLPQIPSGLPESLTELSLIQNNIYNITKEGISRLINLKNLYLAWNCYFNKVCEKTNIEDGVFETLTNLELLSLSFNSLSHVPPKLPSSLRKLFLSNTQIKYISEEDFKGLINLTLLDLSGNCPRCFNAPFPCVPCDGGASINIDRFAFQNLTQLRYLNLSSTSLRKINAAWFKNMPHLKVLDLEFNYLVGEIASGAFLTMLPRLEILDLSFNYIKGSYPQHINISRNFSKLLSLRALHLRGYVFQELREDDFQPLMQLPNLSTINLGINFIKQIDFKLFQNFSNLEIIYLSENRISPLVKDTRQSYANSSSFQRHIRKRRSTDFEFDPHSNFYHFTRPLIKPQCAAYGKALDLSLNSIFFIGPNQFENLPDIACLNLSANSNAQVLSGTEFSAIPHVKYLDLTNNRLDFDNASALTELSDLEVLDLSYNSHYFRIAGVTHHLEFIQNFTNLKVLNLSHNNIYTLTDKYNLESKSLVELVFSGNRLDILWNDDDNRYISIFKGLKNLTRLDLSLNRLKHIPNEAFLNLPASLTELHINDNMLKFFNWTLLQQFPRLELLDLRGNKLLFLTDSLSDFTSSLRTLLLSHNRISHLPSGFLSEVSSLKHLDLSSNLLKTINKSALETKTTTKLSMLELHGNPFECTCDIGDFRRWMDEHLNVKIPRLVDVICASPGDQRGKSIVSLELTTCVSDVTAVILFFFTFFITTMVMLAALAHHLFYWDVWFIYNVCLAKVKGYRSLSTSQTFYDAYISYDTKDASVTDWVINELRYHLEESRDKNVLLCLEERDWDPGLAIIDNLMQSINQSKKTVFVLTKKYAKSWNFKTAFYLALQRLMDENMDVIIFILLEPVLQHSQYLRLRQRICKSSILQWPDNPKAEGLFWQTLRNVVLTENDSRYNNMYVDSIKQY
Method: as §1, §2, §3, §4, §5, §6, §7, §8, §9

[1] = system: human peripheral blood mononuclear cells (PBMC); test: Peripheral blood mononuclear cell test: cytokine stimulation (CBA, flow cytometer); type: cell-based; details: for TNF-α MEC / IFN-α MEC: human PBMC, 24 h; for IFN-α MEC: lowest drug concentration stimulating the production of 30 pg/mL of IFN-α
Method: The purpose of this example is to determine the expression level of cytokines 24 h after stimulation to human peripheral blood mononuclear cells (PBMC) with the compound of formula I.
The cell supernatant was assayed without dilution and the levels of IFN-α were directly determined. The compound of formula I was firstly formulated into 20 mM DMSO stock solution during the test and was gradient diluted with cell medium in 10-fold with the total number of 11 diluting points. The compounds in 9 diluting points (the highest concentration was 200 μmol/L) were added into 96-well plate with 50 μL in each well. Fresh human peripheral blood mononuclear cells were inoculated, with 150 μL in each well containing 450,000 cells. The cell culture plate was incubated in an incubator at 37° C., 5% CO2 for 24 h. After incubation, the culture plate was centrifuged at 1200 rpm for 5 min and the supernatant was collected and stored at −20° C. for determination. The determination of cytokine was performed using Cytometric Bead Array (CBA) of BD-Pharmingen on flow cytometer. Using the above determining method, the lowest drug concentration stimulating the production of 30 pg/mL of IFN-α was designated as the MEC value in the cytokine stimulating test.

[2] = High temperature stability test (60° C., open container); type: physicochemical; details: for Appearance / Content / Total content of impurities: open container
Method: The crystal form A of the compound of formula I was tested in the accelerated test under high temperature conditions for stability in accordance with Guidelines for the Stability Test of Pharmaceutical Ingredients and Pharmaceutical Preparations (Chinese Pharmacopoeia 2010 Appendix XIXC).
The crystal form A prepared in Example 1 was placed in an open-clean container at 60° C. The samples were taken for test on day 10, day 20 and day 30, respectively.

[3] = High humidity stability test (40° C./75% humidity, open); type: physicochemical; details: for Appearance / Content / Total content of impurities: 40° C./75% humidity (open)
Method: The crystal form A of the compound of formula I was tested in the accelerated test under high humidity conditions for stability in accordance with Guidelines for the Stability Test of Pharmaceutical Ingredients and Pharmaceutical Preparations (Chinese Pharmacopoeia 2010 Appendix XIXC).
The crystal form A prepared in Example 1 was subjected to an accelerated test in a constant temperature and humidity vessel under the conditions of 40° C./75% humidity (open). The samples were taken for test on day 30, day 60 and day 90, respectively.

## CCCCOc1nc(N)c2[nH]cc(Cc3ccc(CN4CCCC4)cc3)c2n1 [Compound of formula I, 2-butoxy-7-(4-(pyrrolidin-1-ylmethyl)benzyl)-5H-pyrrolo[3,2-d]pyrimidin-4-amine]
Toll-like receptor 7
  in vitro receptor binding activity to Toll-like receptor 7 compared with control GS-9620 (in words): higher in vitro receptor binding activity to Toll-like receptor 7 than the control
Toll-like receptor 8
  in vitro receptor binding activity to Toll-like receptor 8 compared with control GS-9620 (in words): lower in vitro receptor binding activity to Toll-like receptor 8 than the control
[1]
  TNF-α MEC: 500 nM
  IFN-α MEC: 5 nM
[1]; versus GS-9620
  TNF-α inducing activity compared with control GS-9620 (in words): comparable TNF-α inducing activity
  in vitro IFN-α inducing activity of PBMCs compared with control GS-9620 (in words): better in vitro IFN-α inducing activity of PBMCs

## CCCCOc1nc(N)c2c(n1)N(Cc1cccc(CN3CCCC3)c1)CC(=O)N2 [GS-9620, reference compound]
[1]
  TNF-α MEC: 500 nM
  IFN-α MEC: 50 nM

## CCCCOc1nc(N)c2[nH]cc(Cc3ccc(CN4CCCC4)cc3)c2n1 [crystal form A, 2-butoxy-7-(4-(pyrrolidin-1-ylmethyl)benzyl)-5H-pyrrolo[3,2-d]pyrimidin-4-amine]
[2]; day 0 (initial)
  Appearance: White powder
  Content: 99.8%
  Total content of impurities: 0.92%
[2]; day 10
  Appearance: Light yellow powder
  Content: 98.5%
  Total content of impurities: 1.10%
[2]; day 20
  Appearance: Light yellow powder
  Content: 98.1%
  Total content of impurities: 1.18%
[2]; day 30
  Appearance: Light yellow powder
  Content: 98.8%
  Total content of impurities: 1.29%
[2]; up to 30 days
  stability in high temperature conditions (in words): good stability in high temperature conditions
[3]; day 0 (initial)
  Appearance: White powder
  Content: 100.2%
  Total content of impurities: 0.92%
[3]; day 30
  Appearance: White powder
  Content: 99.9%
  Total content of impurities: 0.92%
[3]; day 60
  Appearance: White powder
  Content: 99.9%
  Total content of impurities: 0.65%
[3]; day 90
  Appearance: White powder
  Content: 100.2%
  Total content of impurities: 0.93%
[3]; 40° C./75% humidity, up to 90 days
  stability in high humidity conditions (in words): good stability in high humidity conditions

From US10947245B2, “Crystal form A of 2-butoxy-7-(4-(pyrrolidin-1-ylmethyl)benzyl)-5H-pyrrolo[3,2-d]pyrimidin-4-amine for inhibiting toll-like receptor activity” (priority 2016, dated 2021)
